# Read-outs that look alike come from different tables or passages of the source.
# Columns and labels:
# [1] = format: in vitro ADME; details: for stability in human blood serum: 15 h; for hydrolysis products found in human blood serum: HPLC-HRMS
# HIV-1 X4LAI.04 = test: HIV-1 inhibition in MT-4 cell cultures; format: cell-based; details: read-out: EC50 (MT-4)
# [2] = Chemical stability at pH 2.2, 7.4 and 9.0; format: physicochemical; details: pH 9.0 (glycine+NaOH)
# M. tuberculosis H37Rv = test: Anti-TB activity, growth in Middlebrook 7H9 medium, BACTEC MGIT960; format: cell-based; details: growth inhibition not less than 99%
# M. tuberculosis MS-115 = test: as above; format: cell-based; details: clinical MDR strain
# [3] = Viability assay in MT-4 cell cultures; format: cell-based; details: human, MT-4 cells
# [4] = MT-4 cell cultures, HIV-1 X4LAI.04, 3 days, p24gag
# [5] = growth inhibition not less than 99%
# [6] = value in brackets, same MIC in μM
compound,measurement,setting,value
"Cc1cn([C@H]2C[C@H](O)[C@@H](COP(=O)(O)O)O2)c(=O)[nH]c1=O [TMP, reference compound]",T1/2 in human blood serum,[1],20 min
"[AZT]-N3-propyl-N3-[1-N-[4′-(o,o-dimethylbenzyl)cyclopent-2′-enyl]uracil] [Compound 4]",EC50,HIV-1 X4LAI.04; [4],19800 nM
same,stability in human blood serum,[1],only slight debenzoylation at the carbocyclic fragment
same,stability to chemical hydrolysis,[2],stable
"CCCCCCCCCCc1cn(Cc2cn([C@H]3C[C@H](OC(=O)OC[C@H]4O[C@@H](n5cc(C)c(=O)[nH]c5=O)C[C@@H]4N=[N+]=[N-])[C@@H](CO)O3)c(=O)[nH]c2=O)nn1 [Compound 2, 3′-O-[AZT-carbonyl]-5-[(4-decyl-1,2,3-triazol-1-yl)methyl]-2′-deoxyuridine]",EC50,HIV-1 X4LAI.04; [4],70 nM
same,hydrolysis products found in human blood serum,[1],both AZT and dU^R derivative
same,MIC (99) M.tuberculosis H37Rv,M. tuberculosis H37Rv,10 µg/mL
same,MIC (99) M.tuberculosis MS-115,M. tuberculosis MS-115; [5],20 µg/mL
same,MIC (99) M.tuberculosis MS-115,M. tuberculosis MS-115; [6],27 µM
"CCCCCCCCCCc1cn(Cc2cn([C@H]3C[C@H](OC(=O)OC[C@H]4O[C@@H](n5cc(C)c(=O)[nH]c5=O)C[C@@H]4N=[N+]=[N-])[C@@H](COC(=O)OC[C@H]4O[C@@H](n5cc(C)c(=O)[nH]c5=O)C[C@@H]4N=[N+]=[N-])O3)c(=O)[nH]c2=O)nn1 [Compound 3, 3′,5′-di-O-[AZT-carbonyl]-5-[(4-decyl-1,2,3-triazol-1-yl)methyl]-2′-deoxyuridine]",EC50,HIV-1 X4LAI.04; [4],80 nM
same,hydrolysis products found in human blood serum,[1],"1, 2, AZT, and dU^R"
same,MIC (99) M.tuberculosis H37Rv,M. tuberculosis H37Rv,20 µg/mL
same,MIC (99) M.tuberculosis MS-115,M. tuberculosis MS-115; [5],10 µg/mL
same,MIC (99) M.tuberculosis MS-115,M. tuberculosis MS-115; [6],9.7 µM
"CCCCCCCCCCc1cn(Cc2cn([C@H]3C[C@H](O)[C@@H](COC(=O)OC[C@H]4O[C@@H](n5cc(C)c(=O)[nH]c5=O)C[C@@H]4N=[N+]=[N-])O3)c(=O)[nH]c2=O)nn1 [Compound 1, 5′-O-[AZT-carbonyl]-5-[(4-decyl-1,2,3-triazol-1-yl)methyl]-2′-deoxyuridine]",EC50,HIV-1 X4LAI.04; [4],390 nM
same,hydrolysis products found in human blood serum,[1],both AZT and dU^R derivative
same,MIC (99) M.tuberculosis H37Rv,M. tuberculosis H37Rv,50 µg/mL
same,MIC (99) M.tuberculosis MS-115,M. tuberculosis MS-115; [5],50 µg/mL
same,MIC (99) M.tuberculosis MS-115,M. tuberculosis MS-115; [6],67 µM
"Cc1cn([C@H]2C[C@H](N=[N+]=[N-])[C@@H](CO)O2)c(=O)[nH]c1=O [AZT, 3′-azido-3′-deoxythymidine, reference compound]",EC50,"HIV-1 X4LAI.04; Human immunodeficiency virus 1, MT4, 72 h",30 nM
same,CC50,[3],> 100000 nM
"CCCCOc1ccc(Nc2cn(C3C=CC(O)C3)c(=O)n(CCCn3c(=O)c(C)cn(C4CC(N=[N+]=[N-])C(CO)O4)c3=O)c2=O)cc1 (stereo not drawn) [Compound 5, [AZT]-N3-propyl-N3-[1-N-(4′-hydroxycyclopent-2′-enyl)-5-(p-butoxyphenylamino)]uracil]",EC50,HIV-1 X4LAI.04; [4],12900 nM
same,stability in human blood serum,[1],stable
same,MIC (99) M.tuberculosis H37Rv,M. tuberculosis H37Rv,> 50 µg/mL
same,MIC (99) M.tuberculosis MS-115,M. tuberculosis MS-115; [5],50 µg/mL
same,MIC (99) M.tuberculosis MS-115,M. tuberculosis MS-115; [6],75 µM
same,stability to chemical hydrolysis,[2],stable

# — article PMC5576140 (Antiviral research, 2017)
